Reference: patent US20230398130A1, “METHODS AND COMPOSITIONS FOR DIFFERENTIATING STEM CELLS” (Massachusetts Institute of Technology, priority 2020, published 2023)

Experiments:
ISC-enriched organoids [1] = experiment: Primary screen, 384-well 2.5-D organoid differentiation (ENR+CD, 6 days): carbachol-induced lysozyme secretion (LYZ.S); type: cell-based, murine; settings: for Dose.FC.LYZ.S / Z.LYZ.S / SSMD.LYZ.S: primary screen; for Dose.FC.LYZ.S: FC vs plate median; for Z.LYZ.S: standard z score; for SSMD.LYZ.S: strictly standardized mean difference
Excerpt: (§1) High-throughput screening.

ISC-enriched organoids [2] = experiment: Primary screen, 384-well 2.5-D organoid differentiation (ENR+CD, 6 days): basal lysozyme secretion (LYZ.NS); type: cell-based, murine; settings: for Dose.FC.LYZ.NS: FC vs plate median; for SSMD.LYZ.NS: strictly standardized mean difference
Excerpt: as §1

ISC-enriched organoids [3] = experiment: Primary screen, 384-well 2.5-D organoid differentiation (ENR+CD, 6 days, Target Selective Inhibitor Library, vs whole-plate median): ATP (CellTiter-Glo 3D, CTG); settings: for Dose.FC.CTG: FC vs plate median; for SSMD.CTG: strictly standardized mean difference
[4] = 1st of the 4 dose lines of the treatment (dose not given)
[5] = 2nd of the 4 dose lines of the treatment (dose not given)
[6] = 3rd of the 4 dose lines of the treatment (dose not given)
[7] = 4th of the 4 dose lines of the treatment (dose not given)
[8] = Dose 0.08 uM, standard z score of FC
[9] = Dose 0.40 uM, standard z score of FC
[10] = Dose 2.00 uM, standard z score of FC
[11] = Dose 10.00 uM, standard z score of FC
[12] = primary screen, 1st of the 4 dose lines of the treatment (dose not given)
[13] = primary screen, 2nd of the 4 dose lines of the treatment (dose not given)
[14] = primary screen, 3rd of the 4 dose lines of the treatment (dose not given)
[15] = primary screen, 4th of the 4 dose lines of the treatment (dose not given)
[16] = dose 0.08 uM (1st of 4 lines per treatment; dose not printed in this part)
[17] = dose 0.40 uM (2nd of 4 lines per treatment; dose not printed in this part)
[18] = dose 2.00 uM (3rd of 4 lines per treatment; dose not printed in this part)
[19] = dose 10.00 uM (4th of 4 lines per treatment; dose not printed in this part)
[20] = primary screen, dose 0.08 uM, ENR+CD 6 days
[21] = primary screen, dose 0.08 uM, standard z score of FC
[22] = primary screen, dose 0.40 uM, ENR+CD 6 days
[23] = primary screen, dose 0.40 uM, standard z score of FC
[24] = primary screen, dose 2.00 uM, ENR+CD 6 days
[25] = primary screen, dose 2.00 uM, standard z score of FC
[26] = primary screen, dose 10.00 uM, ENR+CD 6 days
[27] = primary screen, dose 10.00 uM, standard z score of FC
[28] = Dose 0.08 uM, primary screen, standard z score
[29] = Dose 0.40 uM, primary screen, standard z score
[30] = Dose 2.00 uM, primary screen, standard z score
[31] = Dose 10.00 uM, primary screen, standard z score

For O=[N+]([O-])C=Cc1ccc2c(c1)OCO2, the Dose.FC.LYZ.S (ISC-enriched organoids [1]; Dose 0.08 uM) was 0.076 log 2 fold change, the Dose.FC.LYZ.S (ISC-enriched organoids [1]; Dose 0.40 uM) was 0.100 log 2 fold change and the Dose.FC.LYZ.S (ISC-enriched organoids [1]; Dose 2.00 uM) was 0.019 log 2 fold change. It also gave a Dose.FC.LYZ.S (ISC-enriched organoids [1]; Dose 10.00 uM) of −0.179 log 2 fold change, a Z.LYZ.S (ISC-enriched organoids [1]; [4]) of 0.493 and a Z.LYZ.S (ISC-enriched organoids [1]; [5]) of 0.648. For the same compound, the Z.LYZ.S (ISC-enriched organoids [1]; [6]) was 0.124, the Z.LYZ.S (ISC-enriched organoids [1]; [7]) was −1.157 and the SSMD.LYZ.S (ISC-enriched organoids [1]; [4]) was 0.451. It also gave an SSMD.LYZ.S (ISC-enriched organoids [1]; [5]) of 0.331, an SSMD.LYZ.S (ISC-enriched organoids [1]; [6]) of 0.073 and an SSMD.LYZ.S (ISC-enriched organoids [1]; [7]) of −0.676. For the same compound, the Dose.FC.LYZ.NS (ISC-enriched organoids [2]; Dose 0.08 uM, primary screen) was 0.057 log 2 fold change, the Z.LYZ.NS (ISC-enriched organoids [2]; [8]) was 0.499 and the Dose.FC.LYZ.NS (ISC-enriched organoids [2]; Dose 0.40 uM, primary screen) was −0.010 log 2 fold change. The Z.LYZ.NS (ISC-enriched organoids [2]; [9]) was −0.088, the Dose.FC.LYZ.NS (ISC-enriched organoids [2]; Dose 2.00 uM, primary screen) was 0.040 log 2 fold change and the Z.LYZ.NS (ISC-enriched organoids [2]; [10]) was 0.347. The Dose.FC.LYZ.NS (ISC-enriched organoids [2]; Dose 10.00 uM, primary screen) was −0.150 log 2 fold change, the Z.LYZ.NS (ISC-enriched organoids [2]; [11]) was −1.307 and the SSMD.LYZ.NS (ISC-enriched organoids [2]; [12]) was 0.518. It also gave an SSMD.LYZ.NS (ISC-enriched organoids [2]; [13]) of −0.082, an SSMD.LYZ.NS (ISC-enriched organoids [2]; [14]) of 0.270 and an SSMD.LYZ.NS (ISC-enriched organoids [2]; [15]) of −0.670. For the same compound, the Dose.FC.CTG (ISC-enriched organoids [3]; Dose 0.08 uM, primary screen) was −0.016 log 2 fold change, the Z.CTG (ISC-enriched organoids [3]; [8]) was −0.037 and the Dose.FC.CTG (ISC-enriched organoids [3]; Dose 0.40 uM, primary screen) was 0.061 log 2 fold change. It also gave a Z.CTG (ISC-enriched organoids [3]; [9]) of 0.146, a Dose.FC.CTG (ISC-enriched organoids [3]; Dose 2.00 uM, primary screen) of 0.062 log 2 fold change and a Z.CTG (ISC-enriched organoids [3]; [10]) of 0.148. For the same compound, the Dose.FC.CTG (ISC-enriched organoids [3]; Dose 10.00 uM, primary screen) was −0.197 log 2 fold change, the Z.CTG (ISC-enriched organoids [3]; [11]) was −0.469 and the SSMD.CTG (ISC-enriched organoids [3]; [12]) was −0.026. It also gave an SSMD.CTG (ISC-enriched organoids [3]; [13]) of 0.148, an SSMD.CTG (ISC-enriched organoids [3]; [14]) of 0.166 and an SSMD.CTG (ISC-enriched organoids [3]; [15]) of −0.338.

In the case of O=C(O)C(Cc1ccccc1[N+](=O)[O-])=NNc1nc(-c2ccc(Cl)c(Cl)c2)cs1 (mixture of isomers) [4EGI-1], the “SSMD.LYZ.S_Rep (strictly standardized mean difference)” value (ISC-enriched organoids [1]; [16]) is reported as −0.264, the “Z.LYZ.S (standard z score)” value (ISC-enriched organoids [1]; [16]) is reported as −0.236 and the “SSMD.LYZ.S_Rep (strictly standardized mean difference)” value (ISC-enriched organoids [1]; [17]) is reported as 0.326. For the same compound, the “Z.LYZ.S (standard z score)” value (ISC-enriched organoids [1]; [17]) was 0.352, the “SSMD.LYZ.S_Rep (strictly standardized mean difference)” value (ISC-enriched organoids [1]; [18]) was −0.328 and the “Z.LYZ.S (standard z score)” value (ISC-enriched organoids [1]; [18]) was −0.380. For the same compound, the “SSMD.LYZ.S_Rep (strictly standardized mean difference)” value (ISC-enriched organoids [1]; [19]) was 0.189, the “Z.LYZ.S (standard z score)” value (ISC-enriched organoids [1]; [19]) was 0.366 and the Dose.FC.LYZ.S (ISC-enriched organoids [1]; dose 0.08 uM, ENR+CD 6 days) was −0.037 log 2 fold change. For the same compound, the Dose.FC.LYZ.S (ISC-enriched organoids [1]; dose 0.40 uM, ENR+CD 6 days) was 0.054 log 2 fold change, the Dose.FC.LYZ.S (ISC-enriched organoids [1]; dose 2.00 uM, ENR+CD 6 days) was −0.059 log 2 fold change and the Dose.FC.LYZ.S (ISC-enriched organoids [1]; dose 10.00 uM, ENR+CD 6 days) was 0.057 log 2 fold change. The “SSMD.LYZ.NS_Rep (strictly standardized mean difference)” value (ISC-enriched organoids [2]; [16]) was 0.378, the “SSMD.LYZ.NS_Rep (strictly standardized mean difference)” value (ISC-enriched organoids [2]; [17]) was 0.264 and the “SSMD.LYZ.NS_Rep (strictly standardized mean difference)” value (ISC-enriched organoids [2]; [18]) was 0.252. The “SSMD.LYZ.NS_Rep (strictly standardized mean difference)” value (ISC-enriched organoids [2]; [19]) was −0.257, the Dose.FC.LYZ.NS (ISC-enriched organoids [2]; [20]) was 0.110 log 2 fold change and the Z.LYZ.NS (ISC-enriched organoids [2]; [21]) was 0.956. For the same compound, the Dose.FC.LYZ.NS (ISC-enriched organoids [2]; [22]) was 0.036 log 2 fold change, the Z.LYZ.NS (ISC-enriched organoids [2]; [23]) was 0.315 and the Dose.FC.LYZ.NS (ISC-enriched organoids [2]; [24]) was 0.069 log 2 fold change. The Z.LYZ.NS (ISC-enriched organoids [2]; [25]) was 0.597, the Dose.FC.LYZ.NS (ISC-enriched organoids [2]; [26]) was −0.034 log 2 fold change and the Z.LYZ.NS (ISC-enriched organoids [2]; [27]) was −0.300. The “SSMD.CTG_Rep (strictly standardized mean difference)” value (ISC-enriched organoids [3]; [16]) was −0.352, the “SSMD.CTG_Rep (strictly standardized mean difference)” value (ISC-enriched organoids [3]; [17]) was −0.158 and the “SSMD.CTG_Rep (strictly standardized mean difference)” value (ISC-enriched organoids [3]; [18]) was 0.407. The “SSMD.CTG_Rep (strictly standardized mean difference)” value (ISC-enriched organoids [3]; [19]) was −0.283, the Dose.FC.CTG (ISC-enriched organoids [3]; [20]) was −0.160 log 2 fold change and the Z.CTG (ISC-enriched organoids [3]; [21]) was −0.383. The Dose.FC.CTG (ISC-enriched organoids [3]; [22]) was −0.131 log 2 fold change, the Z.CTG (ISC-enriched organoids [3]; [23]) was −0.314 and the Dose.FC.CTG (ISC-enriched organoids [3]; [24]) was 0.127 log 2 fold change. For the same compound, the Z.CTG (ISC-enriched organoids [3]; [25]) was 0.304, the Dose.FC.CTG (ISC-enriched organoids [3]; [26]) was −0.109 log 2 fold change and the Z.CTG (ISC-enriched organoids [3]; [27]) was −0.261.

Fc1cc(F)c2c(c1)[C@H]1C=CC[C@H]1C(c1cccnc1)N2 (mixture of isomers) [Golgicide A] gave a Dose.FC.LYZ.S (ISC-enriched organoids [1]; Dose 0.08 uM) of 0.146 log 2 fold change, a Dose.FC.LYZ.S (ISC-enriched organoids [1]; Dose 0.40 uM) of 0.202 log 2 fold change and a Dose.FC.LYZ.S (ISC-enriched organoids [1]; Dose 2.00 uM) of 0.076 log 2 fold change. The Dose.FC.LYZ.S (ISC-enriched organoids [1]; Dose 10.00 uM) was −0.256 log 2 fold change, the Dose.FC.LYZ.NS (ISC-enriched organoids [2]; Dose 0.08 uM, primary screen) was 0.267 log 2 fold change and the Z.LYZ.NS (ISC-enriched organoids [2]; [28]) was 2.325. It also gave a Dose.FC.LYZ.NS (ISC-enriched organoids [2]; Dose 0.40 uM, primary screen) of 0.066 log 2 fold change, a Z.LYZ.NS (ISC-enriched organoids [2]; [29]) of 0.576 and a Dose.FC.LYZ.NS (ISC-enriched organoids [2]; Dose 2.00 uM, primary screen) of 0.171 log 2 fold change. For the same compound, the Z.LYZ.NS (ISC-enriched organoids [2]; [30]) was 1.492, the Dose.FC.LYZ.NS (ISC-enriched organoids [2]; Dose 10.00 uM, primary screen) was −0.161 log 2 fold change and the Z.LYZ.NS (ISC-enriched organoids [2]; [31]) was −1.402. It also gave a Dose.FC.CTG (ISC-enriched organoids [3]; Dose 0.08 uM, primary screen) of 0.167 log 2 fold change, a Z.CTG (ISC-enriched organoids [3]; [28]) of 0.398 and a Dose.FC.CTG (ISC-enriched organoids [3]; Dose 0.40 uM, primary screen) of 0.227 log 2 fold change. For the same compound, the Z.CTG (ISC-enriched organoids [3]; [29]) was 0.541, the Dose.FC.CTG (ISC-enriched organoids [3]; Dose 2.00 uM, primary screen) was 0.339 log 2 fold change and the Z.CTG (ISC-enriched organoids [3]; [30]) was 0.810. It also gave a Dose.FC.CTG (ISC-enriched organoids [3]; Dose 10.00 uM, primary screen) of −0.220 log 2 fold change and a Z.CTG (ISC-enriched organoids [3]; [31]) of −0.526.
